Where two headings read alike, the source gives them in different places.
Legend:
KRAS^G12D [1] = target: T1, KRAS^G12D (Homo sapiens, UniProt P01116, G12D); settings: known inhibitor, Figure 1, cited from earlier work
T1 construct: purchased Abcam

Panc 04.03 cells = experiment: MTT cell proliferation assay; format: cell-based; settings: Homo sapiens, 72 h treatment
Protocol: According to the previously reported method ([Yang et al., 2019]), the human pancreatic cancer cell line (Panc 04.03) was seeded at the density of 2.4 × 10^4 on 96-well plates. After incubation at 37°C with 5% CO2 for 24 h, the cells were incubated with different concentrations of inhibitors under the same conditions. After 72 h, MTT (0.5 mg/ml, 100 μl) was added after the supernatant was discarded. Then keep the 96-well plate at 37°C for 4 h. After that, abandon the medium and inject 200 μl of dimethyl sulfoxide (DMSO) into each well. The spectrophotometric absorbance of the sample at 570 nm was measured using a Synergy 4 Microplate Reader (BioTek Instruments Inc., United States). All of the compounds were tested three times in each of the cells.

KRAS^G12D [2] = target: T1, KRAS^G12D; experiment: Microscale thermophoresis (MST) binding assay; settings: room temperature
Protocol: MST is an effective method to evaluate biomolecular interactions and has been used to study the interactions between binding partners of different molecular sizes ([Wienken et al., 2010]; [Seidel et al., 2013]). According to the previously reported method to measure the interaction between small molecule inhibitors and KRAS^G12D protein, the MST assay was performed using Monolith NT.115 instrument (NanoTemp Technologies, GmbH, Munich, Germany) ([Wienken et al., 2010]). The red fluorescent dye was used for KRAS^G12D fluorescent labeling. Small molecule inhibitors were diluted 1:1 and titrated. The binding buffer (50 mM Tris, 230 mM NaCl) was added to the dilution curve of the small molecule inhibitors and the labeled protein. The final sample was centrifuged at 13,000 rpm for 10 min, and then filled into the capillary tube for MST analysis with 20% LED power and 50% MST power at room temperature. The equilibrium dissociation constant (K d) was calculated using Nano Temper Analysis software.

[3] = system: Panc 04.03 xenograft tumors; experiment: In vivo anticancer activity, Panc 04.03 xenograft; parameters: species or system BALB/c nude mice; settings: 3 and 10 mg/kg intraperitoneal every 4 days, five times, 20 days, vs vehicle
Protocol: Based on previously reported protocols for investigating inhibition in vivo ([Zhou et al., 2022]), we injected Panc 04.03 cells (200 μl, 1 × 10^7 cells) in the subdermal space on the right flank of 6-week-old BALB/c nude mice (Changzhou Cavens Laboratory Animal Co., Ltd, China). All experimental protocols were approved by the Animal Ethics Committee of China Pharmaceutical University (Ethic approval number: 2022–11–001). Once tumors grew to 80–100 mm^3, mice were randomly divided into three groups (5 mice per group) and intraperitoneally administered with vehicle, hit compound 3 (3 mg/kg) and hit compound 3 (10 mg/kg) every 4 days for a total of five times. Tumor volume and body weight were measured every 4 days. Tumor volume was calculated using the formula (c × c × d)/2 (c, the smallest diameter; d, the largest diameter).

T1 sequence (P01116 1-188 isoform P01116-2 G12D): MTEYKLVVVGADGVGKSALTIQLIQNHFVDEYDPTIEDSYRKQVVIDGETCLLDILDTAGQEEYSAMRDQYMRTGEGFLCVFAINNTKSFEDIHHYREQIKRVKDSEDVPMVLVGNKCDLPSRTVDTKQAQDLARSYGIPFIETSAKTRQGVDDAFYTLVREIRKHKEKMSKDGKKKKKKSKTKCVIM

Cn1cnc(Cn2ccc3ccc(CNCc4[nH]c5ccccc5c4[C@H]4NC(=O)c5ccc(O)cc54)cc32)c1 [BI-2852]
IC50 (KRAS^G12D [1]; ref Kessler et al., 2019): 6700 nM

C#Cc1c(F)ccc2cc(O)cc(-c3ncc4c(N5CC6CCC(C5)N6)nc(OCC(C)NC(F)(F)F)nc4c3F)c12 (stereo not shown) [Hit compound 1]
IC50 (Panc 04.03 cells): 212 nM | Kd (KRAS^G12D [2]): 0.98 ± 0.09 nM

C#Cc1c(F)ccc2cc(O)cc(-c3ncc4c(N5CC6CCC(C5)N6)nc(OCC5CCCN5CC5CC5)nc4c3F)c12 (stereo not shown) [Hit compound 2]
IC50 (Panc 04.03 cells): 90 nM | Kd (KRAS^G12D [2]): 0.46 ± 0.08 nM

Oc1cc(-c2ncc3c(N4CC5CCC(C4)N5)nc(OCC4CCCN4CCC4CCCC4)nc3c2F)c2c(Cl)cccc2c1 (stereo not shown) [Hit compound 3]
IC50 (Panc 04.03 cells): 43.8 nM | Kd (KRAS^G12D [2]): 0.13 ± 0.05 nM | Tumor growth (tumor volume) of Panc 04.03 xenograft [3]: significantly inhibited

Oc1cc(-c2ncc3c(N4CC5CCC(C4)N5)nc(OCCNC4CCCCC4)nc3c2F)c2c(Cl)cccc2c1 [Hit compound 4]
IC50 (Panc 04.03 cells): 146 nM | Kd (KRAS^G12D [2]): 0.76 ± 0.11 nM

Cc1cccc2cccc(N3CCc4c(nc(OCC5CCCN5C)nc4N4CC5CCC(C4)N5)C3)c12 (stereo not shown) [TH-Z835, reference compound]
IC50 (Panc 04.03 cells): > 300 nM | IC50 (KRAS^G12D [1]; ref Mao et al., 2022): 1600 nM

NC1(C(=O)NCCCn2cc(-c3ccc(OC(F)(F)F)cc3)c3cc(CN4CCN(Cc5c(Cl)cccc5Cl)CC4)ccc32)CCNCC1 [compound 3144]
IC50 (KRAS^G12D [1]; ref Welsch et al., 2017): 3800 nM

Reference: publication PMC9815544, “Discovery of potent and noncovalent KRAS^G12D inhibitors: Structure-based virtual screening and biological evaluation” (Frontiers in Pharmacology, 2022)
